From article PMC3944389, “Differential Neuroprotective Effects of 5′-Deoxy-5′-Methylthioadenosine” (PLoS ONE, 2014) come the findings set out here.

The nature of data set [1]: Parallel artificial membrane permeability assay (PAMPA), BBB model, passive diffusion. The class given is in vitro ADME. The method, then: The PAMPA assay was used to determine the capacity of compounds to cross a blood brain barrier (BBB) model by passive diffusion, measuring the effective permeability of the compounds at an initial concentration of 200 µM. The buffer solution was prepared from a concentrated commercial solution (Pion, Billerica, MA, US) according to the manufacturer's instructions and the pH was adjusted to 7.4 with 0.5 M NaOH. The compound of interest was dissolved in the buffer solution (200 µM), the PAMPA sandwich was separated and the donor well was filled with 195 µL of the compound of interest. The acceptor plate and donor plate were brought together, with the underside of the membrane in contact with the buffer. An 4 µL aliquot of the phospholipid mixture (20 mg/ml) in dodecane was added to the filter of each well, and then 200 µL of buffer solution was added to each acceptor well. The plate was covered and incubated for 4 h at RT in a saturated humidity atmosphere with agitation and with 25 µm of an unstirred water layer in the Gut-Box (Pion). After 4 h, a 150 µL/well sample from the donor plate and a 150 µL/well sample from the acceptor plate were transferred to HPLC vials. Then, 100 µL from acceptor well, 5 µL from the donor well and 5 µL from the t0 samples were injected into an HPLC reverse-phase symmetry C18 column (150 mm×4.6 mm×5 µm, 100 Å; Waters). Transport was confirmed by HPLC mass spectrometry and matrix-assisted laser desorption/ionization time-of-flight (MALDI-TOF) spectrometry to ensure the compound had maintained its integrity. The phospholipid mixture used was a porcine polar brain lipid extract composed of 12.6% phosphatidylcholine (PC), 33.1% phosphatidylethanolamine (PE), 18.5% phosphatidylserine (PS), 4.1% phosphatidylinositol (PI), 0.8% phosphatidic acid and 30.9% of other compounds.
(In general: In PAMPA a lipid-coated filter parts donor from acceptor wells.)

Data set [2] relates to co-culture of bovine-brain endothelial cells (BBECs) and newborn rat astrocytes. The data set can be described thus: In vitro cell model of transport across the BBB. The class given is in vitro ADME. How it is done:
A in vitro cell model of BBB permeability was established using a co-culture of bovine-brain endothelial cells (BBECs) and newborn rat astrocytes. The cells were first cultured in 24-well (Transwell^R) permeable supports with a surface area of 0.33 cm^2 and a pore size of 0.4 µm (Corning), the upper surface of which was coated with collagen type IV and fibronectin. The inserts were then placed upside down in a large petri dish, and 40 µL of a suspension (containing approximately 45,000 astrocytes) was placed on the bottom of each filter. The petri dish was incubated at 37°C for 1 h, and 40 µL of fresh DMEM+S was added to the bottom of each filter every 15 min. The inserts were then transferred back to the plate and incubated at 37°C in 5% CO2 for 3 d. Then, 2 h before seeding the BBECs, the medium was replaced by DMEM+S supplemented with 125 µg/mL heparin and 2 h later, the cells were seeded onto the inserts (45,000 cells per filter). The plate was incubated at 37°C in 5% CO2 for 3 more days, after which the medium was replaced by DMEM+S supplemented with cyclic adenosine monophosphate (cAMP) and RO-20-1724, and kept at 37°C in 5% CO2. On day 8 of the co-culture, the transendothelial electrical resistance (TEER) was measured to determine whether the system was ready for transport studies. To validate the maturity of the model, permeability assays with lucifer yellow (LY) were performed in parallel as a marker of the integrity of the in vitro barrier. During the permeability assay, the samples were co-incubated with LY (20 µM) to assess the integrity of the cellular monolayer during the assay.

Data set [3] has as its system rat mixed cultures of neurons and astrocytes. The data set can be described thus: Oxygen-glucose deprivation (OGD) with iodoacetate, LDH release. The class given is cell-based. The settings on record: IAA 20 and 50 µM; MTA 10 µM or 100 µM, APV 100 µM. The method, then: (§1) Finally, to prepare neuron-astrocyte co-cultures, neurons were resuspended in B27 Neurobasal medium plus 10% of foetal bovine serum (FBS) and then seeded onto a monolayer of astrocytes in 24-well plates at a density of 1–2×10^5 cells per well, the astrocytes having been prepared beforehand, as described elsewhere. One day later, the medium was replaced with B27-Neurobasal plus 10% FBS medium, and the cells were maintained at 37°C in 5% CO2. The cultures were used 8–9 days after plating. Neurons and astrocytes were identified with antibodies against microtubule-associated protein-2 and GFAP, respectively.
Ischemic damage was induced by incubating cell cultures for 1 h in a hyperbaric chamber in a nitrogen-saturated buffer containing: 130 mM NaCl, 5.4 mM KCl, 0.1323 mM CaCl2, 0.26 mM NaHCO3, 0.8 mM MgCl2, 1.18 mM NaH2PO4, 10 mM sucrose (OGD plus sucrose) and iodoacetate (IAA, 20 or 50 µM). IAA is a glycolytic blocker typically used in OGD experiments to simulate ischemic conditions. After the insult, the cells were incubated under normoxic conditions for an additional 24 h in the presence of glucose but in the absence of IAA. Distinct reagents were added during ischemia to evaluate their neuroprotective activity by assessing cell viability and cell death in the cultures.
The cell status was assessed by measuring the release of lactate dehydrogenase (LDH) from dead cells. LDH was measured spectrophotometrically at 490 nm on a 96-well plate reader using the Cytotox 96 Kit according to the manufacturer's instructions (Promega). The LDH release was defined by the ratio of LDH released to the total LDH present in the cell at the beginning of the treatment.
In general terms: LDH leaks from cells whose membrane has failed.

Data set [4] deals with C57Bl mice treated with MPTP. The data set can be described thus: MPTP mouse model of Parkinson's disease, stereological counting of TH+ neurons. It is filed as in vivo. Conditions: MTA 30 mg/kg, MSX-3 10 mg/kg (legend: 9 mg/kg), alone or combined; MPTP 30 mg/kg i.p. 5 days. The method, then: 12-week-old male C57Bl mice from Charles River (Barcelona, Spain) were injected i.p. with 30 mg/kg 1-methyl-4-phenyl-1,2,3,6-tetrahydropyridine (MPTP, Sigma-Aldrich) on five consecutive days. Subsequently, MTA (30 mg/kg) and/or the A2A adenosine receptor (A2AR, 10 mg/kg) antagonist, MSX-3 (Sigma-Aldrich), was administered one day before starting MPTP treatment and 1 h after each MPTP injection (n = 6 in each experimental group). We used mice in the MPTP model because rats are resistant to systemic MPTP administration and thus, the rat MPTP model requires stereotaxic MPTP injection directly into the nigrostriatal fibers. […]
The reference volume was calculated according to Cavalieri principles from images obtained with a 2× objective using a point count array. The cross-sectional area of the nucleus was measured and the reference volume (Vr) for the entire nucleus was estimated using the following equation: [drawing 1] where T is the thickness of the sections, a/p is the area of each point and Pi is the number of points that landed within the area. The region of interest to estimate the area was outlined at low magnification (4×), and the number of labeled neurons was calculated under 100× magnification (with oil immersion) using randomized meander sampling and the optical dissector methods. […]

In data set [5] the test system is rat mixed astrocyte-neuron cultures. The data set is described as follows: NMDA-induced caspase 3 activation in mixed astrocyte-neuron cultures. It is filed as cell-based. The settings on record: pre- or co-treatment; MTA 250 µM, MK-801 10 µM; 300 µM NMDA. The method, then:
as §1
To assay N-methyl–D-aspartate (NMDA) excitotoxicity, primary cultures were seeded in 24-well plates at 15×10^4 cells/well, cultured for 7 days in vitro, and treated for different times with the vehicle alone (dimethyl sulfoxide (DMSO) 1%), NMDA (300 µM), NMDA (300 µM) + MTA (250 µM) or NMDA (300 µM) + MK-801, a NMDA receptor antagonist (10 µM). […] Caspase 3 activity was measured in these lysates one hour after the NMDA addition.
Cortical neurons, or mixed cortical neurons and glia, were seeded in poly-L-lysine-coated 6-well culture plates during 7 days in vitro before start the set of experiments. […] The extracts were then centrifuged at 5,000×g for 10 min at 4°C and the protein content was determined by the BCA protein assay. […]

`NC(=O)N1c2ccccc2C=Cc2ccccc21` [Carbamazepine]: in data set [1] (200 µM, pH 7.4, 4 h at RT), the “% Membrane retention” value was 0.5%. Further, the Papp at 4 h, 200 µM in data set [1] (200 µM, pH 7.4, 4 h at RT, read-out: Pe x 10^−6) stood at 11.5 ×10⁻⁶ cm/s.

With “Apo E: control compound in the in vitro cell model of BBB”, in data set [2], the “Pe x 10^−6 (cm/s)” value was 2.2 x 10^−6 cm/s and the “effective permeability coefficient (Pe)” value came to 2.2 ×10⁻⁶ cm/s.

In the case of `N[C@H](CCCP(=O)(O)O)C(=O)O` [APV, (2R)-amino-5-phosphonovaleric acid, reference compound], the “protection against OGD (cell death, LDH release)” value in data set [3] was “similar”.

In data set [1], `CC(C)NCC(O)COc1cccc2ccccc12` (stereo not drawn) [Propanolol, propranolol] gave a Membrane retention of 30%. In data set [1] (200 µM, pH 7.4, 4 h at RT), the “% Membrane retention” value was determined as 30.2% and the “Pe x 10^−6 (cm/s)” value is 10.3 x 10^−6 cm/s.

Turning to `C#CCn1c(=O)c2c(nc(/C=C/c3cccc(OC)c3)n2C)n(CCCOP(=O)([O-])[O-])c1=O.[Na+].[Na+]` [MSX-3, reference compound], the “neuroprotection: TH+ neurons in the substantia nigra” value in data set [4] is “not statistically significant”.

Regarding `C[C@]12N[C@H](Cc3ccccc31)c1ccccc12` [MK-801, reference compound], in data set [5], the “caspase 3 activation induced by NMDA” value is reported as “reverted to basal levels”.

Consider “Transferrin: control compound in the in vitro cell model of BBB”, for which, in data set [2], the “Pe x 10^−6 (cm/s)” value is recorded as 8.2 x 10^−6 cm/s and the “effective permeability coefficient (Pe)” value is 8.2 ×10⁻⁶ cm/s.
